US12703698B2, “Inhibitors of interleukin-1 receptor-associated kinases 1 and 4” (The University of Rochester, priority 2020, dated 2026)

Assays:
[1] = test system: THP-1 cells; assay: Colony formation of THP-1 cells in vitro; format: cell-based, human; settings: FIGS. 4A-4C
Description: FIGS. 4A, 4B and 4C show the effect of MCC950 (reference), UR241-1, and UR241-2 on the colony formation potential of THP-1 cells in vitro.

[2] = test system: MDS-L cells; assay: Colony formation of MDS-L cells in vitro; format: cell-based; settings: for colony formation potential of MDS-L cells: FIGS. 6A-6B; for colony formation of MDS-L cells: FIGS. 7A-7C
Description: FIGS. 6A and 6B show the effect of UR241-1 and UR241-2 on the colony formation potential of MDS-L cells in vitro.

[3] = test system: IL1b signaling events in THP-1 cells; assay: Western blot of IL1b signaling events in THP-1 cells; format: cell-based, human; settings: THP-1 cells at 10 and 30 minutes; hIL-1β 10 ng/mL, UR241-2 4 μM, WB 30 μg/lane; FIG. 1E
Procedure: Whole cell lysates of THP1 treated with vehicle, hIL-1B (10 ng/mL), UR241-1 (10 μM) and UR241-2 (4 μM) for 10 minutes and 30 minutes. 30 μg proteins were electrophoresed and probed with phospho-/native p65, phospho-p38, pAKT, and GAPDH.

[4] = test system: murine MLL-AF9 leukemia; assay: Colony forming activity in methylcellulose culture, MLL-AF9 leukemia; format: cell-based

SMILES | colony formation potential of THP-1 cells [1] | colony formation potential of MDS-L cells [2] | colony formation of MDS-L cells [2] | inhibition of IL1b signaling events [3] | inhibition of colony forming activity ([4]; UR241-2 4 uM with MCC950 100 nM, FIG. 1F) | inhibition of colony forming activity ([4]; UR241-2 4 uM without MCC950, FIG. 1F)
COc1cc(N2CCS(=O)(=O)CC2)ccc1NC(=O)c1cccc(-c2cc[nH]n2)n1 [UR241-2] | suppressed the colonies formed by THP-1 cells dose-dependently | suppressed the colonies formed by MDS-L cells dose dependently | inhibited colony formation of MDS-L cells in vitro, dose-dependently | inhibition | inhibition of colony forming activity | inhibition of colony forming activity
CC[C@@H]1[C@H](F)C(=O)N[C@@H]1COc1nccc2cc(C(N)=O)c(OC)cc12 [PF06650833, reference compound] | – | – | inhibited colony formation of MDS-L cells in vitro, dose-dependently | – | – | –
CC(C)(O)c1coc(S(=O)(=O)NC(=O)Nc2c3c(cc4c2CCC4)CCC3)c1 [MCC950, reference compound] | suppressed the colonies formed by THP-1 cells dose-dependently | – | inhibited colony formation of MDS-L cells in vitro, dose-dependently | – | – | –
COc1cc(N2CCS(=O)(=O)CC2)ccc1NC(=O)c1cccc(-c2cc[nH]n2)c1 [UR241-1] | suppressed the colonies formed by THP-1 cells dose-dependently | suppressed the colonies formed by MDS-L cells dose dependently | – | – | – | –
